According to patent US20230346961A1, “GLP-1 AND GIP RECEPTOR CO-AGONISTS” (Novo Nordisk A/S, priority 2020, published 2023):
Starred links: 1 amine or outer side, 2 acyl side, 3 side chain; linkers in the order of their positions; H or OH if unused. Non-standard residues stand in square brackets, D forms with d. Residues, ends and D or L forms follow the SMILES beside them. Groups on a side chain read outwards from the residue. *: point of attachment. C20 diacid = O=C(O)CCCCCCCCCCCCCCCCCCC(=O)*; γGlu = O=C(O)[C@H](CCC(=O)[*:2])N[*:1]; εLys = N[C@@H](CCCCN[*:1])C(=O)[*:2]; Trx = NC[C@H]1CC[C@H](C(=O)O)CC1; AEEA = NCCOCCOCC(=O)O; Aib = CC(C)(N)C(=O)O

How the values were obtained:
[1] = target: human GLP-1 receptor (Homo sapiens, UniProt P43220); experiment: cell-based; conditions: hGLP-1R
[2] = target: T1, mouse GIP receptor (Mus musculus, UniProt Q0P543); experiment: cell-based
T1 sequence (Q0P543 19-460): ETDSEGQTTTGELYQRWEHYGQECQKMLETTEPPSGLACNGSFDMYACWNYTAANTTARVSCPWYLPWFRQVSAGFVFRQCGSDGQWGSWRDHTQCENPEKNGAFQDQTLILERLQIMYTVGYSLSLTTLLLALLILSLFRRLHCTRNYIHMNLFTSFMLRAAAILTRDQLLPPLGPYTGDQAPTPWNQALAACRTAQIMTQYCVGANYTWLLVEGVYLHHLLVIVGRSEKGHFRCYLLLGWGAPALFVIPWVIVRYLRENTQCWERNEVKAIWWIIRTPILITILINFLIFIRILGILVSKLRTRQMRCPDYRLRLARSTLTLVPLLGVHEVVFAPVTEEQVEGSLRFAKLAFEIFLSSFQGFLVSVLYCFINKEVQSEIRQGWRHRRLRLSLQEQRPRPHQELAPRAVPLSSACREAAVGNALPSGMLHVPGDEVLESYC
Description: The in vitro functional potency is the measure of target receptor activation in a whole cell assay.
In vitro functional potency was determined by measuring the response of the target receptor in a reporter gene assay in individual cell lines. […] When the respective receptor is activated, it results in the production of cAMP, which in turn results in expression of the luciferase protein. When assay incubation is completed, luciferase substrate (luciferin) is added resulting in the enzymatic conversion of luciferin to oxyluciferin and producing bioluminescence. The luminescence is measured as the readout for the assay.
The cells lines used in these assays were BHK cells with BHKTS13 as a parent cell line. The cell lines were derived from a clone containing the CRE luciferase element and were established by further transfection with the respective receptor to obtain the relevant cell line.
The cells were cultured at 37° C. with 5% CO2 in Cell Culture Medium. They were aliquoted and stored in liquid nitrogen. The cells were kept in continuous culture and were seeded out the day before each assay.
GLP-1R and GcgR Cell Culture Medium consisted of DMEM medium with 10% FBS, 500 μg/mL G418, and 300 μg/mL hygromycin. GIPR Cell Culture Medium consisted of DMEM medium with 10% FBS, 400 μg/mL G418, and 300 μg/mL hygromycin. Assay Buffer consisted of DMEM w/o phenol red, 10 mM Hepes, 1×Glutamax, 1% ovalbumin, and 0.1% Pluronic F-68 with the addition of HSA at twice the final assay concentration.
• 1) Cells were plated at 5000 cells/well and incubated overnight in the assay plate. • 2) Cells were washed once in DPBS. • 3) Stocks of the test compounds and reference compounds in concentrations ranging from 100-300 μM were diluted 1:150 in Assay Buffer. Compounds were then diluted 1:10 in column 1 of a 96 deep well dilution plate and then carried across the row creating a 3.5 fold, 12 point dilution curve. • 4) Assay Buffer (50 μl aliquot) with or without HSA was added to each well in the assay plate. • 5) A 50 μl aliquot of compound or blank was transferred from the dilution plate to the assay plate containing the Assay Buffer with or without HSA. • 6) The assay plate was incubated for 3 h in a 5% CO2 incubator at 37° C. 7) The cells were washed once with DPBS. • 8) A 100 μl aliquot of DPBS was added to each well of the assay plate. • 9) A 100 μl aliquot of steadylite plus reagent (light sensitive) was added to each well of the assay plate. • 10) Each assay plate was covered with aluminum foil to protect it from light and shaken at 250 RPM for 30 min at room temperature. • 11) Each assay plate was read in a microtiter plate reader.
The data from the microtiter plate reader was first regressed in an Excel in order to calculate the x-axis, log scale concentrations based on the individual test compound's stock concentration and the dilutions of the assay. […] The software performs a non-linear regression (log(agonist) vs response). A minimum of two replicates was measured for each sample. The reported values are averages of the replicates.

[3] = target: T2, mouse GLP-1 receptor (Mus musculus, UniProt O35659)
T2 sequence (O35659 22-463): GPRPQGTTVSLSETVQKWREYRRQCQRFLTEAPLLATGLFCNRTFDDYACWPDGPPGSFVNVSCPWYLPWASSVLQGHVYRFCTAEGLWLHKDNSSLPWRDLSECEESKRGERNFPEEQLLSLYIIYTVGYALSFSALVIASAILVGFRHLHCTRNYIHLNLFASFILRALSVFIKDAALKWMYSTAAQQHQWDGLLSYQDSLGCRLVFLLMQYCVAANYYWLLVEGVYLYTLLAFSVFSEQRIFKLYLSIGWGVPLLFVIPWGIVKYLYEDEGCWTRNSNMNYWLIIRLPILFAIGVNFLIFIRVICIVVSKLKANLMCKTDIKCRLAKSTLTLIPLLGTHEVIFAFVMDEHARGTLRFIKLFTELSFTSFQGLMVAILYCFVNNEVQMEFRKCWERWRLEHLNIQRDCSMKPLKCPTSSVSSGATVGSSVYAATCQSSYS

Chain of human GLP-1 receptor (P43220 24-463): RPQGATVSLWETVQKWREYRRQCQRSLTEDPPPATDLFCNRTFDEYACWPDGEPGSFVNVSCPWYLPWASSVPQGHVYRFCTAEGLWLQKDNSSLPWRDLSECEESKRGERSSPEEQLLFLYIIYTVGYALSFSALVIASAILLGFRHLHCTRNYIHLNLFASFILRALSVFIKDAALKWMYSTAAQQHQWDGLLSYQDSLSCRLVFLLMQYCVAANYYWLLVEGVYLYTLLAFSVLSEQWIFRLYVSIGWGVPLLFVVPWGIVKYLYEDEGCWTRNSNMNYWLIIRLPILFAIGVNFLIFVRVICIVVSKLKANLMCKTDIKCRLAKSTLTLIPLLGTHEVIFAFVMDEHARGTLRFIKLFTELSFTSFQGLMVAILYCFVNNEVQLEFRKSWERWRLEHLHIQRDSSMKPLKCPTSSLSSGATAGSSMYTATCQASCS

SMILES	EC50 ([1]; CRE Luc 0% HSA EC50, 0% HSA)	EC50 ([1]; CRE Luc 1% HSA EC50, 1% HSA)	EC50 [2]	EC50 [3]
CC[C@H](C)[C@H](NC(=O)[C@H](CO)NC(=O)[C@H](Cc1ccc(O)cc1)NC(=O)[C@H](CC(=O)O)NC(=O)[C@H](CO)NC(=O)[C@@H](NC(=O)[C@H](Cc1ccccc1)NC(=O)[C@@H](NC(=O)CNC(=O)[C@H](CCC(=O)O)NC(=O)C(C)(C)NC(=O)[C@@H](N)Cc1ccc(O)cc1)[C@@H](C)O)[C@@H](C)O)C(=O)N[C@@H](Cc1ccc(O)cc1)C(=O)N[C@@H](CC(C)C)C(=O)N[C@@H](CCC(=O)O)C(=O)N[C@@H](CCC(=O)O)C(=O)N[C@@H](CCC(N)=O)C(=O)N[C@@H](C)C(=O)N[C@@H](C)C(=O)NC(C)(C)C(=O)N[C@@H](CCCCNC(=O)COCCOCCNC(=O)COCCOCCNC(=O)CC[C@H](NC(=O)[C@H]1CC[C@H](CNC(=O)CCCCCCCCCCCCCCCCCCC(=O)O)CC1)C(=O)O)C(=O)N[C@@H](Cc1ccccc1)C(=O)N[C@H](C(=O)N[C@@H](CC(N)=O)C(=O)N[C@@H](Cc1c[nH]c2ccccc12)C(=O)N[C@@H](CC(C)C)C(=O)N[C@@H](CC(C)C)C(=O)N[C@@H](C)C(=O)NCC(=O)NCC(=O)N1CCC[C@H]1C(=O)N[C@@H](CO)C(=O)N[C@@H](CO)C(=O)NCC(=O)N[C@@H](C)C(=O)N1CCC[C@H]1C(=O)N1CCC[C@H]1C(=O)N1CCC[C@H]1C(=O)N[C@@H](CO)C(N)=O)C(C)C [Compound 25] (H-Y[Aib]EGTFTSDYSIYLEEQAA[Aib]K([AEEA-AEEA-γGlu-Trx-C20 diacid])FVNWLLAGGPSSGAPPPS-NH2; N-terminus assumed)	0.0048 nM	0.602 nM	0.34 nM	0.0029 nM
CC[C@H](C)[C@H](NC(=O)[C@H](CO)NC(=O)[C@H](Cc1ccc(O)cc1)NC(=O)[C@H](CC(=O)O)NC(=O)[C@H](CO)NC(=O)[C@@H](NC(=O)[C@H](Cc1ccccc1)NC(=O)[C@@H](NC(=O)CNC(=O)[C@H](CCC(=O)O)NC(=O)C(C)(C)NC(=O)[C@@H](N)Cc1ccc(O)cc1)[C@@H](C)O)[C@@H](C)O)C(=O)N[C@@H](Cc1ccc(O)cc1)C(=O)N[C@@H](CC(C)C)C(=O)N[C@@H](CCC(=O)O)C(=O)N[C@@H](CCC(=O)O)C(=O)N[C@@H](CCC(N)=O)C(=O)N[C@@H](C)C(=O)N[C@@H](C)C(=O)NC(C)(C)C(=O)N[C@@H](CCCCNC(=O)COCCOCCNC(=O)COCCOCCNC(=O)CC[C@H](NC(=O)CCCCCCCCCCCCCCCCCCC(=O)O)C(=O)O)C(=O)N[C@@H](Cc1ccccc1)C(=O)N[C@H](C(=O)N[C@@H](CC(N)=O)C(=O)N[C@@H](Cc1c[nH]c2ccccc12)C(=O)N[C@@H](CC(C)C)C(=O)N[C@@H](CC(C)C)C(=O)N[C@@H](C)C(=O)NCC(=O)NCC(=O)N1CCC[C@H]1C(=O)N[C@@H](CO)C(=O)N[C@@H](CO)C(=O)NCC(=O)N[C@@H](C)C(=O)N1CCC[C@H]1C(=O)N1CCC[C@H]1C(=O)N1CCC[C@H]1C(=O)N[C@@H](CO)C(N)=O)C(C)C [Compound 26] (H-Y[Aib]EGTFTSDYSIYLEEQAA[Aib]K([AEEA-AEEA-γGlu-C20 diacid])FVNWLLAGGPSSGAPPPS-NH2; N-terminus assumed)	0.0047 nM	0.37 nM	0.776 nM	0.0028 nM
CC[C@H](C)[C@H](NC(=O)[C@H](CO)NC(=O)[C@H](Cc1ccc(O)cc1)NC(=O)[C@H](CC(=O)O)NC(=O)[C@H](CO)NC(=O)[C@@H](NC(=O)[C@H](Cc1ccccc1)NC(=O)[C@@H](NC(=O)CNC(=O)[C@H](CCC(=O)O)NC(=O)C(C)(C)NC(=O)[C@@H](N)Cc1ccc(O)cc1)[C@@H](C)O)[C@@H](C)O)C(=O)N[C@@H](Cc1ccc(O)cc1)C(=O)N[C@@H](CC(C)C)C(=O)N[C@@H](CCC(=O)O)C(=O)N[C@@H](CCCCN)C(=O)N[C@@H](CCCCNC(=O)COCCOCCNC(=O)COCCOCCNC(=O)CC[C@H](NC(=O)CCCCCCCCCCCCCCCCCCC(=O)O)C(=O)O)C(=O)N[C@@H](C)C(=O)N[C@@H](C)C(=O)NC(C)(C)C(=O)N[C@@H](CCC(=O)O)C(=O)N[C@@H](Cc1ccccc1)C(=O)N[C@H](C(=O)N[C@@H](CC(N)=O)C(=O)N[C@@H](Cc1c[nH]c2ccccc12)C(=O)N[C@@H](CC(C)C)C(=O)N[C@@H](CC(C)C)C(=O)N[C@@H](C)C(=O)NCC(=O)NCC(=O)N1CCC[C@H]1C(=O)N[C@@H](CO)C(=O)N[C@@H](CO)C(=O)NCC(=O)N[C@@H](C)C(=O)N1CCC[C@H]1C(=O)N1CCC[C@H]1C(=O)N1CCC[C@H]1C(=O)N[C@@H](CO)C(N)=O)C(C)C [Compound 30] (H-Y[Aib]EGTFTSDYSIYLEKK([AEEA-AEEA-γGlu-C20 diacid])AA[Aib]EFVNWLLAGGPSSGAPPPS-NH2; N-terminus assumed)	0.0084 nM	0.353 nM	0.201 nM	0.0019 nM
CC[C@H](C)[C@H](NC(=O)[C@H](CO)NC(=O)[C@H](Cc1ccc(O)cc1)NC(=O)[C@H](CC(=O)O)NC(=O)[C@H](CO)NC(=O)[C@@H](NC(=O)[C@H](Cc1ccccc1)NC(=O)[C@@H](NC(=O)CNC(=O)[C@H](CCC(=O)O)NC(=O)C(C)(C)NC(=O)[C@@H](N)Cc1ccc(O)cc1)[C@@H](C)O)[C@@H](C)O)C(=O)N[C@@H](Cc1ccc(O)cc1)C(=O)N[C@@H](CC(C)C)C(=O)N[C@@H](CCC(=O)O)C(=O)N[C@@H](CCCCN)C(=O)N[C@@H](CCC(N)=O)C(=O)N[C@@H](C)C(=O)N[C@@H](C)C(=O)NC(C)(C)C(=O)N[C@@H](CCCCNC(=O)COCCOCCNC(=O)COCCOCCNC(=O)CC[C@H](NC(=O)[C@H]1CC[C@H](CNC(=O)CCCCCCCCCCCCCCCCCCC(=O)O)CC1)C(=O)O)C(=O)N[C@@H](Cc1ccccc1)C(=O)N[C@H](C(=O)N[C@@H](CC(N)=O)C(=O)N[C@@H](Cc1c[nH]c2ccccc12)C(=O)N[C@@H](CC(C)C)C(=O)N[C@@H](CC(C)C)C(=O)N[C@@H](C)C(=O)NCC(=O)NCC(=O)N1CCC[C@H]1C(=O)N[C@@H](CO)C(=O)N[C@@H](CO)C(=O)NCC(=O)N[C@@H](C)C(N)=O)C(C)C [Compound 32] (H-Y[Aib]EGTFTSDYSIYLEKQAA[Aib]K([AEEA-AEEA-γGlu-Trx-C20 diacid])FVNWLLAGGPSSGA-NH2; N-terminus assumed)	0.0117 nM	0.221 nM	0.0802 nM	0.0025 nM
CC[C@H](C)[C@H](NC(=O)[C@H](CO)NC(=O)[C@H](Cc1ccc(O)cc1)NC(=O)[C@H](CC(=O)O)NC(=O)[C@H](CO)NC(=O)[C@@H](NC(=O)[C@H](Cc1ccccc1)NC(=O)[C@@H](NC(=O)CNC(=O)[C@H](CCC(=O)O)NC(=O)C(C)(C)NC(=O)[C@@H](N)Cc1ccc(O)cc1)[C@@H](C)O)[C@@H](C)O)C(=O)N[C@@H](Cc1ccc(O)cc1)C(=O)N[C@@H](CC(C)C)C(=O)N[C@@H](CCC(=O)O)C(=O)N[C@@H](CCCCNC(=O)[C@@H](N)CCCCNC(=O)[C@@H](N)CCCCNC(=O)CC[C@H](NC(=O)[C@H]1CC[C@H](CNC(=O)CCCCCCCCCCCCCCCCCCC(=O)O)CC1)C(=O)O)C(=O)N[C@@H](CCC(N)=O)C(=O)N[C@@H](C)C(=O)N[C@@H](C)C(=O)NC(C)(C)C(=O)N[C@@H](CCC(=O)O)C(=O)N[C@@H](Cc1ccccc1)C(=O)N[C@H](C(=O)N[C@@H](CCC(N)=O)C(=O)N[C@@H](Cc1c[nH]c2ccccc12)C(=O)N[C@@H](CC(C)C)C(=O)N[C@@H](CC(C)C)C(=O)N[C@@H](CCC(=O)O)C(=O)NCC(=O)NCC(=O)N1CCC[C@H]1C(=O)N[C@@H](CO)C(=O)N[C@@H](CO)C(=O)NCC(=O)N[C@@H](C)C(N)=O)C(C)C [Compound 33] (H-Y[Aib]EGTFTSDYSIYLEK([εLys-εLys-γGlu-Trx-C20 diacid])QAA[Aib]EFVQWLLEGGPSSGA-NH2; N-terminus assumed)	0.0059 nM	0.741 nM	0.0311 nM	0.004 nM
